Assay results: patent US11213560B2, “Method of promoting wound healing with sinetirucallol” (NATIONAL DONG HWA UNIVERSITY, priority 2015, dated 2022)

How the values were obtained:
NFκB = assay: Western blot of NFκB in LPS-induced RAW264.7 cells; type: cell-based, murine; conditions: LPS 1 μg/mL, 12 h; extract 5-100 μg/mL or SI 0.1-10 μM; dose-dependent manner
Experimental: (§1) The RAW264.7 murine macrophage cell line was purchased from the Bioresource Collection and Research Center (BCRC, Taiwan). The cells were incubated at 37° C. in 5% CO2 in Dulbecco's modified Eagle's medium (DMEM; Gibco Inc., NY, USA) supplemented with 100 U/mL penicillin, 100 μg/mL sodium pyruvate and 10% fetal bovine serum (FBS; Gibco Inc.).
(§2) The cells were also treated with 0.01% DMSO as a vehicle control. The cells were seeded into 12-well plates at a density of 6×10^5 cells/well in 24 h then incubated with 0.1% BSA with serum-free medium 3 h, treated with […]
(§3) The concentrations of proteins from whole-cell lysates were determined by Bradford assay. Equal amounts of protein were separated by SDS-PAGE and transferred onto nitrocellulose membranes. […] With the use of horseradish peroxidase-conjugated secondary anti-rabbit or anti-mouse antibody, bound antibodies were detected by enhanced chemiluminescence. The signals were monitored using Western Lightning™ Plus-ECL (Perkin Elmer Life Sciences) and the PVDF membrane was exposed to Luminescent image analyzer LAS-3000 (Fujifilm, Minato, Tokyo, Japan). Acquired data were analyzed and compared the difference among treatments.

RAW 264.7 cells = assay: MTT cell viability of RAW264.7 cells (Example 2); type: cell-based, murine; conditions: extract 5, 20, 50, 100 μg/mL or sinetirucallol 0.1, 1, 5, 10 μM for 24 h
Experimental: as §1
In order to examine the bio-compatibility of the extract of the present disclosed composition, a MTT assay (3-(4,5-dimethylthiazol-2-yl)-2,5-diphenyltetrazolium bromide (MTT, Invitrogen), a colorimetric based assay) was performed.
Briefly, 8×10^3 of cells per well were seeded in 96-well plates and were incubated in 5% CO2 at 37° C. for overnight. Cells were treated different concentrations (5, 20, 50, and 100 μg/mL) of Spiranthes sinensis extract for 24 h, after incubation 20 μL (5 mg/mL) of MTT solution was added per well and further incubated for 4 h. The media was removed, and formazan was solubilized by adding 100 μl/well of DMSO (Sigma-Aldrich) and OD was measured at 570 nm using a microplate reader (ELISA reader, Thermo Labsystems). Percentage of viable cells was estimated by comparing with untreated control cells. The average absorbance value of the control cells was taken as 100% viability.

p-ERK = assay: Western blot of phosphorylated ERK in LPS-induced RAW264.7 cells; type: cell-based, murine; conditions: LPS 1 μg/mL, 12 h; extract 5-100 μg/mL or SI 0.1-10 μM; dose-dependent manner
Experimental: as §1, §2, §3

[1] = test system: CFA-induced inflammation mice; assay: CFA-induced paw inflammation in mice, swelling index; type: in vivo, C57BL/6 mice
[2] = test system: LPS-induced RAW 264.7 cells; assay: Real-time PCR of inflammatory cytokine transcription in LPS-induced RAW 264.7 cells; type: cell-based, murine; conditions: LPS 1 μg/mL; 5 μM SI (tested 0.1, 1, 5, 10 μM)
Experimental: as §1
The cells were also treated with 0.01% DMSO as a vehicle control. The cells were seeded into 12-well plates at a density of 6×10^5 cells/well in 24 h then incubated with 0.1% BSA with serum-free medium 3 h, treated with different concentrations of Spiranthes sinensis extract or SI then incubated in the presence of LPS (1 μg/mL) for 4 h.
Total RNA was prepared from freshly harvested RAW 264.7 cells and was isolated using Trizol extraction. RNA samples were frozen at −80° C. until analyzed. cDNA was then made using an M-MLV RT kit (Invitrogen, Carlsbad, Calif.) according to the manufacturer's protocol. The expression of selected cytokine and related genes in mouse tissue and in RAW264.7 cells exposed to the present Spiranthes sinensis extract was determined by the SensiFAST SYBR No-ROX Kit (BIOLINE, London, UK), as described previously. PCR cycling conditions for TNF-Alpha included a 95° C. heating step for 2 min at the beginning of every run. […] In order to quantify expression represented by each of the PCR products, an internal reference by β-actin.

COX-2 = assay: Western blot of COX-2 in LPS-induced RAW264.7 cells; type: cell-based, murine; conditions: LPS 1 μg/mL, 12 h; extract 5-100 μg/mL or SI 0.1-10 μM; dose-dependent manner
Experimental: as §1, §2, §3

[3] = test system: LPS-induced RAW264.7 cells; assay: Nitrite quantification of NO production in LPS-induced RAW264.7 cells; type: cell-based, murine; conditions: LPS 1 μg/mL 12 h; extract 5, 20, 50, 100 μg/mL or SI 0.1, 1, 5, 10 μM; dose-dependent manner
Experimental: as §1, §2
NO production from activated RAW 264.7 cells was determined by measuring the amount of nitrite, a stable oxidation product of NO. An aliquot of the conditioned medium was mixed with an equal volume of 1% sulfanilamide in water and 0.1% N-1-naphthylethylenediamine dihydrochloride in 5% phosphoric acid. The absorbance was determined at 550 nm. Sodium nitrite, diluted in culture media at concentrations of 10-100 μM, was used to generate a standard curve.

`C[C@H](CC[C@@H]1CC1(C)C)[C@H]1CC[C@@]2(C)C3CCC4C(C)(C)[C@H](O)CC[C@@]4(C)C3=CC[C@]12C` (stereo partly drawn) [sinetirucallol] was tested, and the “LPS-induced expression of NFκB” value (NFκB) was “diminished”, the “Cell viability (MTT assay)” value (RAW 264.7 cells) was “not affected” and the “LPS-induced phosphorylation of ERK” value (p-ERK) was “diminished”. For the same compound, the “anti-inflammatory effect, low versus high dose” value ([1]; 0.44 μg/kg SI compared with 4.4 μg/kg SI) was “better effect than that of 4.4 μg/kg SI”, the “foot swelling recovery compared with 0.3 mg/kg triamcinolone” value ([1]; SI group (4.4, 2.2, 0.44 μg/kg i.p.)) was “less foot swelling recovery than that of 0.3 mg/kg triamcinolone” and the “anti-inflammatory effect (swelling index of foot)” value ([1]; intraperitoneal injection 3 times Day 0 to Day 2, extract 0.5, 0.3, 0.06 mg/kg b.w, SI 4.4, 2.2, 0.44 μg/kg, compared with CFA group) was “much better than that of Spiranthes sinensis extract”. The “inhibition of inflammatory cytokine transcription” value [2] was “better inhibition”, the “LPS-induced expression of COX-2” value (COX-2) was “diminished” and the “NO production (nitrite)” value [3] was “inhibitory effect”.
